In patent US8329644B2, “Lantibiotic-based compounds having antimicrobial activity” (Novacta Biosystems Limited, priority 2007, dated 2012):
Converted amounts (≈) assume the structure as drawn. “And” between values parts separate entries of the source, which are not always exact repeats. Identical values can stand only once.

How the values were obtained:
[1] = tested on: E. faecium; experiment: MIC susceptibility testing, E. faecium; assay type: cell-based
Method: (§1) Susceptibility testing for all aerobic organisms with the exception of Streptococcus pneumoniae was performed by two-fold serial antibiotic dilutions in Mueller-Hinton Broth supplemented with 50 μg/ml Ca^2+ unless otherwise noted. Susceptibility testing for S. pneumoniae was performed by two-fold serial antibiotic dilutions in Brain-Heart-Infusion Broth supplemented with 50 μg/ml Ca^2+ unless otherwise noted. Actively growing broth cultures were diluted to contain […] by adjusting to an OD600 of 0.2-0.3. They were then diluted a further 1:100 in fresh sterile broth. The assays were performed in duplicate in sterile 96-well microtitre plates in a total volume of 200 μl (160 μl broth, 20 μl antimicrobial agent, 20 μl inoculum) in a concentration range from 64 μg/ml to 0.06 μg/ml. […] Clinical isolates of Clostridium difficile were tested in Wilkins-Chalgren Anaerobe Agar under anaerobic conditions. In all cases, vancomycin was used as a reference antibiotic

[2] = tested on: S. salivarius; experiment: MIC susceptibility testing, S. salivarius; assay type: cell-based; conditions: S. salivarius GRL05064; Viridans streptococci; Table 3
Method: as §1

[3] = Stability in simulated intestinal fluid (SIF); assay type: in vitro ADME; conditions: 37° C., analytical HPLC
Method: Nisin, mersacidin, compound I and compound III were tested for their susceptibility towards enzymatic digestion in the stomach. Nisin, mersacidin and compound III were tested for their susceptibility towards enzymatic digestion in the intestine. The SGF and SIF were based on the standard USP solutions for simulated gastric and simulated intestinal fluids and their activity confirmed against Bovine Serum Albumin (Hilger et al, Clin. Exp. Immunol. 2001, 123, 387-94). The compounds were incubated in SGF or SIF at 37° C. and their concentrations quantified by analytical HPLC (UV detection at 210 nm). The potential degradation of each compound was also monitored qualitatively by measuring in vitro antibacterial activity against Micrococcus luteus.
The rapid degradation of nisin in this medium supports the observation that the clinical utility of nisin for the treatment of colonic infections is very limited unless the compound can be protected from degradative enzymes by means of careful formulation.

## CCC(C)[C@@H]1NC(=O)[C@H](C(C)C)NC(=O)[C@H]2NC(=O)CNC(=O)[C@@H]3CS[C@@H](C)[C@@H](NC(=O)[C@H]4CSC[C@H](N)C(=O)N[C@@H](CO)C(=O)NCC(=O)N[C@@H](Cc5c[nH]c6ccccc56)C(=O)N[C@@H](C(C)C)C(=O)N4)C(=O)N[C@@H](CC(C)C)C(=O)N[C@@H](C(=O)N[C@@H](C(C)CC)C(=O)N[C@@H](CCC(=O)O)C(=O)N3)[C@H](C)SC[C@H](NC1=O)C(=O)N[C@@H](C)C(=O)N[C@H](C(=O)NCCO)C[S+]([O-])[C@H]2C (some centres unmarked) [Compound III, Actagardine N-[2-ethanolamine]monocarboxamide]
[1]; E. faecium 19579, Table 2
  MIC: 16 µg/mL (≈ 8.28 µM)
[1]; E. faecium 19579, Vancomycin sensitive enterococci, Table 3
  MIC: 16 µg/mL (≈ 8.28 µM)
[1]; E. faecium 7131121, Table 2
  MIC: 64 µg/mL (≈ 33.1 µM)
[1]; E. faecium 7634337, Vancomycin resistant enterococci, Table 3
  MIC: >32 µg/mL
[1]; E. faecium 7662769, Vancomycin resistant enterococci, Table 3
  MIC: >32 µg/mL
[1]; E. faecium 7865229, Vancomycin sensitive enterococci, Table 3
  MIC: >32 µg/mL
[1]; E. faecium 7865532, Vancomycin resistant enterococci, Table 3
  MIC: >32 µg/mL
[1]; E. faecium 9709024, Vancomycin resistant enterococci, Table 3
  MIC: >32 µg/mL
[1]; E. faecium 9710577, Vancomycin resistant enterococci, Table 3
  MIC: >32 µg/mL
[1]; E. faecium (VRE) (clinical isolate), Table 5, first isolate
  Minimal Inhibitory Concentration (MIC): 64 µg/mL
[1]; E. faecium (VRE) (clinical isolate), Table 5, second isolate
  Minimal Inhibitory Concentration (MIC): 4 µg/mL
[1]; E. faecium (VSE) ATCC 19579, Table 5
  Minimal Inhibitory Concentration (MIC): 16 µg/mL
[1]; E. faecium (VSE) ATCC 29212, Table 5
  Minimal Inhibitory Concentration (MIC): 4 µg/mL
[1]; E. faecium GRL05031, Vancomycin resistant enterococci, Table 3
  MIC: 4 µg/mL (≈ 2.07 µM)
[1]; E. faecium GRL05032, Vancomycin resistant enterococci, Table 3
  MIC: 4 µg/mL (≈ 2.07 µM)
[1]; E. faecium GRL05033, Vancomycin resistant enterococci, Table 3
  MIC: 8 µg/mL and 4 µg/mL
[1]; E. faecium GRL05034, Vancomycin resistant enterococci, Table 3
  MIC: 16 µg/mL (≈ 8.28 µM)
[1]; E. faecium GRL05035, Vancomycin resistant enterococci, Table 3
  MIC: 16 µg/mL (≈ 8.28 µM)
[2]
  MIC: 1 µg/mL (≈ 0.517 µM)
[3]
  stability in SIF: essentially stable
